GI50 and TGI data for 14 molecules are collected here from PubChem BioAssay (NCI).

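These data come from cells grown in 96-well plates and exposed to compound for 48 hours at five concentrations. At the GI50, growth is halved. TGI is the concentration that stops growth completely.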

What all share (experiment): NCI-60 cell line screen, 48 h
Assay [1] has as its system A498 renal.
For assay [2], the system named is COLO 205 colon.
In assay [3] the test system is HCT-116 colon.
Assay [4] deals with IGROV1 ovarian.
Assay [5] deals with K-562 leukemia.
Assay [6] has as its system LOX IMVI melanoma.
Assay [7] has as its system MDA-MB-435.
Assay [8] concerns OVCAR-4 ovarian.
Assay [9] deals with SN12C renal.
In assay [10] the test system is SR leukemia.

On to `CC12OC(C(=O)C13CCC3)C1C(=O)c3c(O)ccc(O)c3C(=O)C12` (centres undefined), for which the GI50 was 14.5 µM in assay [1]; 3.14 µM in [2]; 0.571 µM in assay [3]; 3.3 µM in assay [4]; 1.27 µM in assay [5]; 2.33 µM in assay [6]. Besides, the GI50 was 2.3 µM in assay [7], 4.06 µM in assay [8], 0.0256 µM in assay [9] and 0.29 µM in assay [10]. Moreover, the TGI was 29.8 µM in assay [1]; above 100 µM in assay [2]; 1.78 µM in assay [3]; 11.4 µM in assay [4]; 10.3 µM in assay [5]; above 100 µM in [6]. Besides, the TGI in [7] is 5.81 µM; in [8], above 100 µM; in assay [9], 0.0729 µM; in assay [10], 2.23 µM.
As for `Nc1csc(-c2scc3c2OCCO3)c1N`, the TGI in assay [1] stood at 36.6 µM; in [2] it was 91.4 µM; in assay [3], 46.4 µM; in assay [4], 54.8 µM; in assay [5], 87.4 µM; in assay [6] it was 30.9 µM. In addition, the TGI was 36.1 µM in assay [7], above 100 µM in [8], 37.4 µM in [9] and above 100 µM in assay [10].
Take `COc1cc(/C=C2\CC3C4CC[C@H]5C[C@@H](O)CC[C@]5(C)C4CC[C@]3(C)\C2=N\O)cc(OC)c1OC` (some centres undefined): the TGI in assay [1] was 31.1 µM; in [2], 29.4 µM; in [3] it was 21.4 µM; in [4], above 100 µM; in assay [5], above 100 µM; in [6], 64.2 µM. The values for the TGI in assay [7], in assay [8] and in [9] were 34.8 µM, 37.9 µM and 41.9 µM, respectively.
With `C=C(CN(C)C)C(=O)c1ccccc1Cl`, the TGI was above 96 µM in assay [1]; 29.3 µM in [2]; 34 µM in assay [3]; above 70.8 µM in assay [4]; above 75.4 µM in [5]; 33.4 µM in assay [6]. For the same molecule, the TGI in assay [8] is 40.8 µM; in [9] it was 42.3 µM; in assay [10], above 81.7 µM.
Consider `CCCC(=O)Nc1cc(/C=C/C(=O)N2CC(CCl)c3c2cc(OC(C)=O)c2[nH]cc(C)c32)n(C)c1` (centres undefined), for which the TGI in assay [1] was 0.000667 µM; in assay [2] it was 4.32e-05 µM; in assay [4], above 0.25 µM; in assay [5] it was above 0.197 µM; in [6], above 0.25 µM; in [7] it was 0.000686 µM. For the same molecule, the figures for the TGI in assay [8], in assay [9] and in assay [10] were 0.0213 µM, 0.00519 µM and above 0.25 µM, respectively.
For the molecule `Cc1c2ccccc2cc2cccc[n+]12`, the TGI in assay [2], in assay [3], in [4], in assay [5], in assay [6] and in assay [7] was above 100 µM each time. Also, the TGI in [9] and in assay [10] was above 100 µM each time.
As for `O=S(C(c1ccccc1)=P(c1ccccc1)(c1ccccc1)c1ccccc1)c1ccc(Cl)cc1` (centres undefined), the TGI is 37.1 µM in assay [1]; 79.5 µM in assay [3]; above 100 µM in [4]; above 100 µM in assay [5]; above 100 µM in assay [6]; 40.6 µM in assay [7]. For the same molecule, the TGI in assay [8] was 98.3 µM; in assay [10], above 100 µM.
For the molecule `CCCCSCCC(N)P(=O)(O)O` (centres undefined), the TGI in [2], in [3], in [4], in assay [5], in assay [6] and in [7] was above 100 µM throughout. Further, the TGI in assay [8], in assay [9] and in [10] was above 100 µM throughout.
As to `COc1cc(S(=O)(=O)Nc2ccc(-c3csc(/N=C\c4cccc(Oc5ccccc5)c4)n3)cc2)ccc1Cl`, the TGI in [2] was above 100 µM; in assay [3], 92.6 µM; in assay [4], 64.2 µM; in [5], 77 µM; in [6], 39 µM; in assay [7], above 100 µM. For the same molecule, the TGI is above 100 µM in assay [8], 96.7 µM in assay [9] and 81.9 µM in assay [10].
In the case of `CC(C)C(=O)CC(c1ccc(Br)cc1)N1N=C(C(C)C)CC1c1ccc(Br)cc1` (centres undefined), the TGI in [2], in [3], in assay [5], in assay [6], in assay [8] and in [9] was above 100 µM in each case. This molecule also showed a TGI in assay [10] above 100 µM.
For the molecule `CN(CCc1ccccn1)c1ccc2c(c1)Cc1ccccc1-2`, the TGI is 50.6 µM in assay [1]; 41.4 µM in assay [2]; above 100 µM in assay [3]; 88.1 µM in assay [4]; above 100 µM in assay [5]; above 100 µM in assay [6]. For the same molecule, the TGI is above 100 µM in [7], 97.7 µM in [8] and above 100 µM in assay [9].
Turning to `O=C1CNc2cc(N3CCCCC3)ccc2N1`, the TGI in assay [4] was 29.7 µM; in assay [5] it was above 100 µM; in assay [7] it was above 100 µM; in assay [8], above 100 µM; in [9], above 100 µM; in [10] it was above 100 µM.
Consider `CN(CCCNC(=O)c1nn(-c2ccccc2)c2c1Cc1ccccc1-2)CCCNC(=O)c1nn(-c2ccccc2)c2c1Cc1ccccc1-2`, for which the TGI is 3.15 µM in assay [1]; 2.8 µM in assay [2]; 2.87 µM in [3]; 3.07 µM in [4]; 2.17 µM in [5]; 2.87 µM in assay [7]. Besides, the figures for the TGI in assay [8], in [9] and in assay [10] were 1.85 µM, 3.2 µM and 1.42 µM, respectively.
For `CS(=O)(=O)Nc1cccc(-c2ccc3ncnc(Nc4cncc(Cl)c4)c3c2)c1`, the GI50 was 0.533 µM in assay [4]; 2.59 µM in assay [5]; 3.2 µM in [7]; 4.16 µM in assay [8]; 2.63 µM in assay [9]; 1.67 µM in [10]. Further, the TGI in assay [4] was 4.06 µM; in [5] it was above 100 µM; in [7], above 100 µM; in assay [8] it was above 100 µM; in [9] it was above 100 µM; in assay [10], 5.47 µM.
